# Results taken from ChEMBL document CHEMBL5465560, “Selectivity Literature for EUbOPEN Chemogenomic Library” (2024).
# Tests used:
# [1] = molecular target: T1, Serine/threonine-protein kinase DCLK1 (Homo sapiens) (UniProt O15075); assay: Selectivity interaction (Ambit KINOMEscan and KiNATiv profiling in Jurkat cells) EUB0000090b DCLK1; assay type: cell-based; settings: at 1 µM
# T1 sequence (whole entry): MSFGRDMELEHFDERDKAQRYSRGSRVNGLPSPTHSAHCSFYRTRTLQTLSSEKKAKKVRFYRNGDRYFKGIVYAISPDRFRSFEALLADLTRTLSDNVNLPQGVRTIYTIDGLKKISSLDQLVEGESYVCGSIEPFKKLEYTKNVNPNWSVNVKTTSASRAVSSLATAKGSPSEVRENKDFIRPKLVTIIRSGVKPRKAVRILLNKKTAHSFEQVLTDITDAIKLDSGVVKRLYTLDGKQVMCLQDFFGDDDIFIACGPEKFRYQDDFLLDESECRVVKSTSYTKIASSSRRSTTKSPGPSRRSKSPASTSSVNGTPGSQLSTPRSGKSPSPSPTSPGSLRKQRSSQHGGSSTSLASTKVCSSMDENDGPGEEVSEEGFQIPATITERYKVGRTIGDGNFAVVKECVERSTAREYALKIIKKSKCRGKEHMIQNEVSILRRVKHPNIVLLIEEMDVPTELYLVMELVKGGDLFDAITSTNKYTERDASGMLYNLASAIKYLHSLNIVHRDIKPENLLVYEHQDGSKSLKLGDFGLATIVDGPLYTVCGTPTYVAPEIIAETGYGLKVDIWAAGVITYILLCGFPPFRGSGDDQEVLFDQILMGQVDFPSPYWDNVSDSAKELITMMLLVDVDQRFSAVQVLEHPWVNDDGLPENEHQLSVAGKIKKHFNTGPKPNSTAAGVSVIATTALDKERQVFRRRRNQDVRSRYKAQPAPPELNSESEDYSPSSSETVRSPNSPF
# [2] = molecular target: T2, Tyrosine-protein kinase JAK3 (Homo sapiens) (UniProt P52333); assay: Selectivity interaction (KinomeScan (DiscoverX)) EUB0000655a JAK3; settings: at 10 µM
# T2 sequence (whole entry): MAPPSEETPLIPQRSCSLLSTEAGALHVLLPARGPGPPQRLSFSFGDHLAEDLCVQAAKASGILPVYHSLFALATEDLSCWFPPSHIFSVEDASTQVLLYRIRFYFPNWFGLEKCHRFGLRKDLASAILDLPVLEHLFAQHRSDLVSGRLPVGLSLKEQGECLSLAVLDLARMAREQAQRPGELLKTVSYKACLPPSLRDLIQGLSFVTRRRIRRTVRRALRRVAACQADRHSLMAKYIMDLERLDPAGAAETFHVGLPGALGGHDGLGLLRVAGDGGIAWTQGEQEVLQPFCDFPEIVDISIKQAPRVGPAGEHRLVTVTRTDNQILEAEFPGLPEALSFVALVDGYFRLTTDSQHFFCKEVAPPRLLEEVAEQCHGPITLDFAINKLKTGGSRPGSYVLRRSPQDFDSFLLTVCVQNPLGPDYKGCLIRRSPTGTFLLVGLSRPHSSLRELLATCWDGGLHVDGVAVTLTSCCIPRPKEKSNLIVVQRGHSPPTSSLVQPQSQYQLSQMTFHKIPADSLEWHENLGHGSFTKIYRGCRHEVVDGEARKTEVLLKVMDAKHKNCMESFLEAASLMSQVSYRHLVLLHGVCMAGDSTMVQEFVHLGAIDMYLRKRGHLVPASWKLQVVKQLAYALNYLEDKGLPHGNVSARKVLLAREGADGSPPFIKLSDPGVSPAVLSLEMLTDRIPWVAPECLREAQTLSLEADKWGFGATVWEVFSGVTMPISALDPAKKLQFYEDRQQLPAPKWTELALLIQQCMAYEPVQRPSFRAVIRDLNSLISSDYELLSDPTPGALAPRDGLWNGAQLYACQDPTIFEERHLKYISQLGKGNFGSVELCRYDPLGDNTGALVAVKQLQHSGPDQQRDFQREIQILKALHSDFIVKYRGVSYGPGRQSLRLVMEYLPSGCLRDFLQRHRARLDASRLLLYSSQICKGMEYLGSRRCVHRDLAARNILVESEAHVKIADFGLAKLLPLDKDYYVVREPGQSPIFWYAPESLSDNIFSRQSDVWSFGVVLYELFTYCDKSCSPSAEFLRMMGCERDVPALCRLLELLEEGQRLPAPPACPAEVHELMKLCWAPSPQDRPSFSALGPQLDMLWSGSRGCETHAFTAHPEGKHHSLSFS
# [3] = molecular target: Phosphatidylinositol 4,5-bisphosphate 3-kinase catalytic subunit gamma isoform (Homo sapiens) (UniProt P48736); assay: Selectivity interaction (KinomeScan (DiscoverX)) EUB0001079a PIK3CG; settings: at 1 µM
# [4] = molecular target: Ephrin type-A receptor 5 (Homo sapiens) (UniProt P54756); assay: Selectivity interaction (KinomeScan (DiscoverX)) EUB0000618a EPHA5; settings: at 10 µM
# [5] = molecular target: T3, Phosphatidylinositol 5-phosphate 4-kinase type-2 gamma (Homo sapiens) (UniProt Q8TBX8); assay: Selectivity interaction (ActivX KiNativ screen (kinase selectivity in THP-1 cell lysates)) EUB0000639a PIP4K2C; assay type: subcellular; settings: lysate, at 0.01 µM
# T3 sequence (whole entry): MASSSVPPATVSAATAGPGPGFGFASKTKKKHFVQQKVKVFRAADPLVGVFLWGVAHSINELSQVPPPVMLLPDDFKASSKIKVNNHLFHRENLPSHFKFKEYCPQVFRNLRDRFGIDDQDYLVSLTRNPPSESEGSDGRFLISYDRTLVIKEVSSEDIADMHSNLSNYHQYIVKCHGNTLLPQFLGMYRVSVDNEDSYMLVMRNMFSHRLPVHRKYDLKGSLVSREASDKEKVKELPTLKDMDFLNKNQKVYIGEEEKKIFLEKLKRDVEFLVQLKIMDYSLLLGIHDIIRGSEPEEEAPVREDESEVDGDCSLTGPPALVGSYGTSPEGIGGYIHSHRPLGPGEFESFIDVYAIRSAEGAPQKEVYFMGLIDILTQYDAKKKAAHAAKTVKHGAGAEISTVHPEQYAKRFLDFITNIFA
# [6] = molecular target: T3, Phosphatidylinositol 5-phosphate 4-kinase type-2 gamma (Homo sapiens); assay: Selectivity interaction (KinomeScan (DiscoverX)) EUB0001049a PIP4K2C; settings: at 1 µM
# [7] = molecular target: Ribosomal protein S6 kinase alpha-5 (Homo sapiens) (UniProt O75582); assay: Selectivity interaction (KinomeScan (DiscoverX)) EUB0000666a RPS6KA5; settings: at 10 µM
# [8] = test system: Epidermal growth factor receptor (Homo sapiens), P00533 [UNDEFINED MUTATION]; assay: Selectivity interaction (KinomeScan (DiscoverX)) EUB0000666a EGFR; settings: at 10 µM
# Chain of Epidermal growth factor receptor (Homo sapiens), P00533 [UNDEFINED MUTATION] (P00533 whole entry, looked up, change not shown): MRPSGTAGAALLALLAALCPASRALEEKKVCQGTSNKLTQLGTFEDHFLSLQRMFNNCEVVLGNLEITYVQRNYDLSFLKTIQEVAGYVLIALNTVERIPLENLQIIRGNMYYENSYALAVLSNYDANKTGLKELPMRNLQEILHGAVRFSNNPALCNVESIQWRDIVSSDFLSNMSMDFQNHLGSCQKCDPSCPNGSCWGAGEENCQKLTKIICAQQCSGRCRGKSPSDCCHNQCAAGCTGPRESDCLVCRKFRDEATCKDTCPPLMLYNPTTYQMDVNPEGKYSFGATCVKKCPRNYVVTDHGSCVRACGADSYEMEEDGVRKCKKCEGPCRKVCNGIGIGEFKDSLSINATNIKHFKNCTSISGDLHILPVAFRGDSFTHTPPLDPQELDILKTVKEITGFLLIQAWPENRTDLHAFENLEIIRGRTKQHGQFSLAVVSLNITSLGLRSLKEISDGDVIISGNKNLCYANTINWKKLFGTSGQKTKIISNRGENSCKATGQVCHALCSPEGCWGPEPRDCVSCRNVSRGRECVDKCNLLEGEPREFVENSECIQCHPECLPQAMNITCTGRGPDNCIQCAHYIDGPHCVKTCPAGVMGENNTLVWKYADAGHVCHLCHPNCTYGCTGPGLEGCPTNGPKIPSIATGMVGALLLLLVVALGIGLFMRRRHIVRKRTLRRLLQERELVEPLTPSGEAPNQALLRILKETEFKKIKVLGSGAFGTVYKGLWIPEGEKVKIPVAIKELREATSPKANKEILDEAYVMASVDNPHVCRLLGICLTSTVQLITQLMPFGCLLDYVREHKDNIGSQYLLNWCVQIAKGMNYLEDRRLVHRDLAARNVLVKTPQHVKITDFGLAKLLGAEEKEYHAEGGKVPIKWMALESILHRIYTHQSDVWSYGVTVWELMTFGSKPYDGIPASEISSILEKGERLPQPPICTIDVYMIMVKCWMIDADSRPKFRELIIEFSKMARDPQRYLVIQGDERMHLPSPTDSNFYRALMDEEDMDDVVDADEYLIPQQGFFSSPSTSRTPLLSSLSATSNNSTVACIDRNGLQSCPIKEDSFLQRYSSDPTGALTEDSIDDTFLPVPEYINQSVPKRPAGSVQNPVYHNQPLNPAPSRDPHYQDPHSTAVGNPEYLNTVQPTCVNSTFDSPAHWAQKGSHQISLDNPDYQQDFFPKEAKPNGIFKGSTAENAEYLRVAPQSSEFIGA
# Chain of Ribosomal protein S6 kinase alpha-5 (Homo sapiens) (O75582 whole entry, looked up): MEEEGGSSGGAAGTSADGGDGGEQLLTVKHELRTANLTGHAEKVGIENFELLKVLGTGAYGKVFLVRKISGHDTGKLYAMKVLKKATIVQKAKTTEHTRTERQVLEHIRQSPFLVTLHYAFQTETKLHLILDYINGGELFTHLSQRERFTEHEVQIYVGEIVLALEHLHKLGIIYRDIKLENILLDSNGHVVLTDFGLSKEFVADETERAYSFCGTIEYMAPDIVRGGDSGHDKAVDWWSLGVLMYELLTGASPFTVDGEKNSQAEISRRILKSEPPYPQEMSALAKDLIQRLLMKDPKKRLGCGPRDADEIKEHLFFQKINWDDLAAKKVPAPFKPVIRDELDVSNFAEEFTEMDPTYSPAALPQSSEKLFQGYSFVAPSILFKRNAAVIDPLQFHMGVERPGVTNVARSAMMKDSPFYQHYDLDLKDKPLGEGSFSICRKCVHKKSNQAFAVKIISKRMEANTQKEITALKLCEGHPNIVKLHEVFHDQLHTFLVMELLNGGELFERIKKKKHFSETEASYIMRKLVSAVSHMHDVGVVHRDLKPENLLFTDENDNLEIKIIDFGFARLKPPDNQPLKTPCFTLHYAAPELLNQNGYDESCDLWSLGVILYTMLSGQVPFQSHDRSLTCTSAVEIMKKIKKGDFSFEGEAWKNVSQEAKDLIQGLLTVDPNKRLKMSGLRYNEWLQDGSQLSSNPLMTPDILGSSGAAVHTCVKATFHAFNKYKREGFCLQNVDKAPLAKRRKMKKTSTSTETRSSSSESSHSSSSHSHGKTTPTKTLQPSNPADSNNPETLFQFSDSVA
# Chain of Phosphatidylinositol 4,5-bisphosphate 3-kinase catalytic subunit gamma isoform (Homo sapiens) (P48736 whole entry, looked up, canonical isoform): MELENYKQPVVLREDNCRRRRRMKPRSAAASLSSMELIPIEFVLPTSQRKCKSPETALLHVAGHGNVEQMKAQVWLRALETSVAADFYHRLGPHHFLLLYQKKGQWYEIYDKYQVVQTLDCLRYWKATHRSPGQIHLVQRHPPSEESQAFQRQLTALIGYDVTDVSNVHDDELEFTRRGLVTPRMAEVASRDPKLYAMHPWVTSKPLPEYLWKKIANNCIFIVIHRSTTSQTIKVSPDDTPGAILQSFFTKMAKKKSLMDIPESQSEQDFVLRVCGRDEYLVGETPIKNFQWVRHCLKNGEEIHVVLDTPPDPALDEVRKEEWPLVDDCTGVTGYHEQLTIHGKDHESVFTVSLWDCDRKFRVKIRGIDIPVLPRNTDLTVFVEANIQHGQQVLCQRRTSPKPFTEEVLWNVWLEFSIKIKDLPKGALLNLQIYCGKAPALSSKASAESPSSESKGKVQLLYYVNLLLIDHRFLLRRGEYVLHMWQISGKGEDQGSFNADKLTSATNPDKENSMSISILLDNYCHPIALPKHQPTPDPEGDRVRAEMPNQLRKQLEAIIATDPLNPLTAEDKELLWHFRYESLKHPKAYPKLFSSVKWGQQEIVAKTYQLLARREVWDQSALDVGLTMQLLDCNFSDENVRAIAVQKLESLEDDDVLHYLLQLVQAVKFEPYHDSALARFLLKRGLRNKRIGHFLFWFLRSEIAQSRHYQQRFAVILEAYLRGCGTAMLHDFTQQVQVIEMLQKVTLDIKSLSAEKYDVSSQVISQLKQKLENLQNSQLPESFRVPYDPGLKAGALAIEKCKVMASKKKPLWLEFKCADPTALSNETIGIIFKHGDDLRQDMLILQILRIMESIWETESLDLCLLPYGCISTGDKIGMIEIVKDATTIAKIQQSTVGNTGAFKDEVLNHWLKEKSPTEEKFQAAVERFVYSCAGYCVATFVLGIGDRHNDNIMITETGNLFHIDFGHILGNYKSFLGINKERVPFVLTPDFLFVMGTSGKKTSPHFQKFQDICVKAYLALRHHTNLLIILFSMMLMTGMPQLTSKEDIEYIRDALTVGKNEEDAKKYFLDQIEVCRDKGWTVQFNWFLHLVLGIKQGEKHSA
# Chain of Ephrin type-A receptor 5 (Homo sapiens) (P54756 whole entry): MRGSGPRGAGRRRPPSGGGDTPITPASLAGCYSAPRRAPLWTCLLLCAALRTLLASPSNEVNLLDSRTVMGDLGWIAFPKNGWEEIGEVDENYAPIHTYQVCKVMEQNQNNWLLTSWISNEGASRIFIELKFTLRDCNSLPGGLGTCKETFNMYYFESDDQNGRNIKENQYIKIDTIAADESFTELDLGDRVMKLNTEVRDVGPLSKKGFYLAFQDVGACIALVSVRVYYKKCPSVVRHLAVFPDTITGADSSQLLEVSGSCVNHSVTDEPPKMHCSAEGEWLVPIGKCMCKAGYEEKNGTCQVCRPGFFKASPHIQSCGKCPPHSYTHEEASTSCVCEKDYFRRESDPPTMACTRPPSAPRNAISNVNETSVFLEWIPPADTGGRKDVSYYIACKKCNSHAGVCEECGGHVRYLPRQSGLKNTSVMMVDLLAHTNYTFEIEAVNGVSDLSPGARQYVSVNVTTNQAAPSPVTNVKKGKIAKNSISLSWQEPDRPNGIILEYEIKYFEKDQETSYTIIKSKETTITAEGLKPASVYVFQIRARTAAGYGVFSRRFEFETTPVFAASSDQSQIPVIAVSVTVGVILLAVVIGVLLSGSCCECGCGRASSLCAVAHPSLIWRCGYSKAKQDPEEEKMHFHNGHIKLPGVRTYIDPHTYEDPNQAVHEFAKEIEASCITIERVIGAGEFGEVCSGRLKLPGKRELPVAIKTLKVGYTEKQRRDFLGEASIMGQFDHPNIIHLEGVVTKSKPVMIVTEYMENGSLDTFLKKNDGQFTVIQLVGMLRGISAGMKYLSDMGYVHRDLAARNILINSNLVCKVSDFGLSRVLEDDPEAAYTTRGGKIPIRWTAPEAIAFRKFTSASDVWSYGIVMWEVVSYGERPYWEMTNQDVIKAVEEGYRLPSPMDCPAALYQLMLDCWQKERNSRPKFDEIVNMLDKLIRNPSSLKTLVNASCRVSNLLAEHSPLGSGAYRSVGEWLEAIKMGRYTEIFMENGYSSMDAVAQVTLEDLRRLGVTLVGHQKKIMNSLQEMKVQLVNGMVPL
compound,measurement,setting,value
CN(C)C/C=C/C(=O)Nc1ccc(C(=O)N2CCCC(Nc3ncc(Cl)c(-c4c[nH]c5ccccc45)n3)C2)cc1 (stereo not drawn),% of control,[1],58%
CN(C)CCOc1ccc(-c2nc(-c3ccncc3)c(-c3ccc4c(c3)CC/C4=N\O)[nH]2)cc1,% of control,[2],93%
Nc1cnc(N2CCc3cc(S(=O)(=O)Nc4c(F)cc(Cl)cc4F)cc(N4CCCC4=O)c32)nc1 [TP-020n],% of control,[3],81%
O[C@H]1CC[C@H](Nc2ncc3nc(Nc4c(F)cc(F)cc4F)n([C@H]4CCOC4)c3n2)CC1,% of control,[4],100%
CC[C@@H]1[C@H](F)C(=O)N[C@@H]1COc1nccc2cc(C(N)=O)c(OC)cc12 [ZIMLOVISERTIB],% of inhibition,[5],7.3%
COc1cc(Nc2nc(C)cc(-c3cnn4nc(OC)ccc34)n2)cc(C(F)(F)F)c1,% of control,[6],100%
O=C(NOC[C@H](O)CO)c1ccc(F)c(F)c1Nc1ccc(I)cc1F,% of control,[7],100%
same,% of control,[8],70%
